{"source": "paper PMC6151383", "about": "(Molecules : A Journal of Synthetic Chemistry and Natural …, 2017)", "origin": "cited, not measured here", "system": "Staphylococcus aureus, including a methicillin-resistant strain (MRSA), M. tuberculosis and Mycobacterium avium", "conditions": "range over S. aureus; cited from earlier work", "data": [{"smiles": "O=S(=O)(Nc1ncccn1)c1ccc(N=Cc2cc(Cl)ccc2O)cc1", "note": "[Compound 2c, 4-[(5-Chloro-2-hydroxybenzylidene)amino]-N-(pyrimidin-2-yl)benzenesulfonamide]", "values": [{"measurement": "MIC values", "result": "125 to 250", "unit": "µM"}]}]}
